Assay results as given in PMC12168616, “Machine Learning‐Assisted Prediction and Generation of Antimicrobial Peptides” (Small Science, 2025).
≈ marks a conversion by molar mass, not a printed value. Read-outs that look alike come from different tables or passages of the source. Ends that are not written are not given here. Peptide text beside a SMILES is read from it.

What was measured:
A. Baumannii AB5075 = assay type: cell-based, Acinetobacter baumannii
Description: (§1) To evaluate the susceptibility of the different peptide sequences against clinical isolates of various bacterial pathogens, we used the minimum inhibitory concentration (MIC) assay. The MIC measures the efficacy of peptides in inhibiting bacterial growth. The specific MIC values of various peptides against Enterococcus […] ATCC19433, Staphylococcus aureus ATCC25923, Klebsiella pneumoniae ATCC43816, Acinetobacter baumannii AB5075, Pseudomonas aeruginosa PAO1, and Enterobacter species ATCC13048 were determined by measuring optical density at 600 nm (OD600 nm). […] The growth inhibition curves were used to estimate the MIC values.
(§2) Bacteria: The MIC was the lowest concentration of a drug, which inhibited the visible growth of a bacteria and could be determined by reading the absorption at 600 nm (OD600 nm) using a spectrophotometer. The peptides were subjected to antibacterial testing against gram‐positive and gram‐negative pathogens. All the ESKAPE pathogens (E. faecalis ATCC19433, S. aureus ATCC25923, K. pneumoniae ATCC43816, A. baumannii AB5075, P. aeruginosa PAO1, and E. aerogenes ATCC13048) were inoculated from nutrient agar plates to obtain a bacterial suspension by incubating the colony of bacteria in a flask containing 10 mL of Mueller Hinton broth II (MHB) at 37 °C for 24 h with gentle shaking (75 rpm). The bacterial suspensions were then diluted in MHB to 1 × 10^6 colony‐forming units (CFU) of bacteria mL^−1. Next, using serial dilutions in 96‐well plates, different concentrations of each peptide from 1.5–400 μM were prepared. 100 μL of peptide solutions at final concentration ranging between 0.75–200 μM were then added to a 96‐well plate containing 100 μL of diluted bacterial suspension. After 18–24 h incubation at 37 °C, the turbidity of the samples was observed, and the optical density of bacteria was measured using OD600 nm. All assays were performed in duplicates. The MICs were calculated as ≥90% inhibition of bacteria growth compared to the positive control wells.

E. Faecalis ATCC19433 = assay type: cell-based, Enterococcus faecalis
Description: as §1, §2

S. Aureus ATCC25923 = assay type: cell-based, Staphylococcus aureus
Description: as §1, §2

K. Pneumoniae ATCC43816 = assay type: cell-based, Klebsiella pneumoniae
Description: as §1, §2

P. Aeruginosa PAO1 = assay type: cell-based, Pseudomonas aeruginosa
Description: as §1, §2

E. Aerogenes ATCC13048 = assay type: cell-based, Enterobacter aerogenes
Description: as §1, §2

[1] = broth microdilution, Mueller Hinton broth II, peptide 0.75–200 μM, 18–24 h at 37 °C, OD600 nm, MIC = ≥90% inhibition, duplicates

Molecule	MIC A. Baumannii AB5075 (A. Baumannii AB5075; AB5075)	MIC E. Faecalis ATCC19433 (E. Faecalis ATCC19433; ATCC19433)	MIC K. Pneumoniae ATCC43816 (K. Pneumoniae ATCC43816; ATCC43816)	MIC P. Aeruginosa PAO1 (P. Aeruginosa PAO1; PAO1)	MIC E. Aerogenes ATCC13048 (E. Aerogenes ATCC13048; ATCC13048)	also measured
CC[C@H](C)[C@H](NC(=O)[C@H](CCC(N)=O)NC(=O)[C@@H]1CCCN1C(=O)[C@H](Cc1ccccc1)NC(=O)[C@H](CCCCN)NC(=O)[C@H](CCCCN)NC(=O)CNC(=O)[C@H](Cc1ccccc1)NC(=O)[C@@H](N)Cc1c[nH]c2ccccc12)C(=O)N[C@@H](C)C(=O)N[C@@H](CS)C(=O)N[C@@H](CCCCN)C(=O)N[C@@H](CCCNC(=N)N)C(=O)N[C@@H](CS)C(=O)N[C@@H](CS)C(N)=O [MLWH 43] (H-WFGKKFPQIACKRCC-NH2)	25 µM (≈ 45.4 µg/mL)					
AIVKKGWIKILAWVF-NH2 [MLWH 36]		100 µM	100 µM	200 µM	100 µM	MIC S. Aureus ATCC25923 (S. Aureus ATCC25923; ATCC25923): 6 µM
ALFLGGIWKKLPKAI-NH2 [MLWH02]	100 µM			100 µM		
ALKAKLKFPGKFLFK-NH2 [MLWH 25]	100 µM		100 µM	200 µM	200 µM	
AVLIAKLFHKLNKIK-NH2 [MLWH 15]	100 µM	200 µM	200 µM	200 µM		
AWLKFKKKFGLFAKI-NH2 [MLWH11]	12.5 µM	25 µM	12.5 µM	25 µM	12.5 µM	MIC S. Aureus ATCC25923 (S. Aureus ATCC25923; ATCC25923): 100 µM
FLPLIILKFIGKLLP-NH2 [MLWH 19]	200 µM	1.5 µM				MIC S. Aureus ATCC25923 (S. Aureus ATCC25923; ATCC25923): 3 µM
FNKGKKFFFKFIKWV [MLWH73, peptide generated using algorithm, list 2]						MIC E. Faecalis ATCC19433 (E. Faecalis ATCC19433; [1]): 25 µM; MIC S. Aureus ATCC25923 (S. Aureus ATCC25923; [1]): 25 µM; MIC K. Pneumoniae ATCC43816 (K. Pneumoniae ATCC43816; [1]): 12.5 µM; MIC A. Baumannii AB5075 (A. Baumannii AB5075; [1]): 12.5 µM; MIC P. Aeruginosa PAO1 (P. Aeruginosa PAO1; [1]): 25 µM; MIC E. Aerogenes ATCC13048 (E. Aerogenes ATCC13048; [1]): 25 µM
FVTITLKNFAKKKVG-NH2 [MLWH 28]	200 µM		200 µM		200 µM	
GGAFFKLTQKIIKKA-NH2 [MLWH07]	50 µM		200 µM	200 µM		
GIKIIGIKVATFLKA-NH2 [MLWH03]			200 µM			
GKIFGKLFLALIKMW-NH2 [MLWH06]	25 µM	12.5 µM		200 µM	200 µM	MIC S. Aureus ATCC25923 (S. Aureus ATCC25923; ATCC25923): 25 µM
GLLTTGKKKLLGIIA-NH2 [MLWH 26]	200 µM					
GLWKIKLAFGKMFAK-NH2 [MLWH05]	12.5 µM	25 µM	25 µM	25 µM	25 µM	MIC S. Aureus ATCC25923 (S. Aureus ATCC25923; ATCC25923): 100 µM
GPLMGAFIKKLLPKF-NH2 [MLWH 48]	25 µM	200 µM	100 µM	100 µM	200 µM	
IKVILKLVTNKGNGI-NH2 [MLWH 21]	50 µM	200 µM	200 µM		200 µM	
KFITKFVKGLGLGTL-NH2 [MLWH 23]	50 µM		200 µM	200 µM		
